PMC2652249 (Biochemistry, 2008)
“And” between values parts separate entries of the source, which are not always exact repeats. Equal entries are not always repeated. “Also recorded” adds a separate entry of the source. Where two headings read alike, the source gives them in different places.

Key:
DNA polymerase X (Pol X) [1] = biological target: T1, DNA polymerase X (Pol X) (African swine fever virus, UniProt P42494); assay: biochemical; type: biochemical
DNA polymerase X (Pol X) [2] = biological target: T1, DNA polymerase X (Pol X); conditions: cited from earlier work
DNA polymerase X (Pol X) [3] = biological target: T1, DNA polymerase X (Pol X)

T1 sequence (P42494 whole entry, looked up): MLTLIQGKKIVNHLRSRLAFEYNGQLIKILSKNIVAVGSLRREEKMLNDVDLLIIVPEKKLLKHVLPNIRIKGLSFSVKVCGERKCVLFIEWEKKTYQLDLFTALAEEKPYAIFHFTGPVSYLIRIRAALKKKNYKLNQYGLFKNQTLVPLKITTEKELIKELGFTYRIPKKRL

Row | Structure (SMILES) | inhibition of Pol X by PPi (DNA polymerase X (Pol X) [1]) | turnover rate slower than the rate of correct dG:dCTP incorporation (DNA polymerase X (Pol X) [2]) | Kd (DNA polymerase X (Pol X) [2]; read-out: KD,app) | k1 of fluorescence change (double-exponential) (DNA polymerase X (Pol X) [3]) | k2 of fluorescence change (double-exponential) (DNA polymerase X (Pol X) [3]) | global fitting Vmax (DNA polymerase X (Pol X) [1]) | incorporation under the steady-state conditions (DNA polymerase X (Pol X) [1]) | Ki (DNA polymerase X (Pol X) [1]; global fitting KI) | Km (DNA polymerase X (Pol X) [1]; read-out: global fitting Km) | single-exponential rate k of fluorescence change (DNA polymerase X (Pol X) [3]) | Km (DNA polymerase X (Pol X) [1]) | Vmax (DNA polymerase X (Pol X) [1])
1 | O=P(O)(O)OP(=O)(O)O [PPi, Pyrophosphate] | not inhibited noticeably; also recorded: modest inhibition | – | – | – | – | – | – | – | – | – | – | –
2 | Nc1ncnc2c1ncn2[C@H]1C[C@H](O)[C@@H](COP(=O)(O)OP(=O)(O)OP(=O)(O)O)O1 [dATP] | – | 430 fold | 80 µM | 5.92 ± 0.21 s⁻¹ | 1.17 ± 0.02 s⁻¹ | 1.51 nmol/min | no detectable incorporation | 48 µM and 150 µM | 13 µM | – | – | –
3 | Nc1ccn([C@H]2C[C@H](O)[C@@H](COP(=O)(O)OP(=O)(O)OP(=O)(O)O)O2)c(=O)n1 [dCTP] | – | – | – | – | – | 0.51 nmol/min and 0.47 nmol/min | – | – | 35 µM and 41 µM | 1.64 s⁻¹ and 1.64 ± 0.01 s⁻¹ | 32 µM and 45 µM | 0.52 ± 0.02 nmol/min and 0.49 ± 0.02 nmol/min
